{
  "source": "patent US12616667B2",
  "about": "“Compositions and methods for improving neurological diseases and disorders” (CURASEN THERAPEUTICS, INC., priority 2021, dated 2026)",
  "key": {"subjects": {"tested_on": "subjects", "test": "Visual verbal learning test (VVLT)", "assay_type": "in vivo, human", "conditions": "for effect on VVLT performance: crossover study, 3 agents plus placebo", "description": "Subjects are presented 30 words on a screen, one at a time, for 1 second with a 1-second interval between words over a total of 1 minute. This is repeated in 3 trials. After each trial, subjects are asked to recall as many words as they can. After the third trial, there is a delay of 2.5 hours and subjects are then tested once for delayed recall. […] Since this was a crossover study, everyone who completed Part A was dosed with the 3 agents plus placebo."}, "healthy subjects [1]": {"tested_on": "healthy subjects", "test": "Heart rate by triplicate ECG after Compound 03-5 with or without nadolol", "assay_type": "in vivo, human", "conditions": "6 mg Compound 03-5 with pre-administration of 1 mg nadolol", "description": "FIGS. 11A-11B show the effects of Compound 03-5 monotherapy (6 mg) on heart rate (FIG. 11A) and administered 2 hours after nadolol (1-40 mg) (FIG. 11B). Heart rate was measured by triplicate ECG recordings. Data are presented as means changes from time-matched measures recorded on the day before the first dose of study drug (Day −1).\nHealthy volunteers were be enrolled into 2 cohorts in a study to undertake within-subject dose titration of Compound 03-5 and/or nadolol in order to explore doses/dose combinations that mitigate peripheral effects of Compound 03-5, e.g. on heart rate, while preserving possible central effects of Compound 03-5 on cerebral perfusion and pupillary light reflex.\nCohort D1 enrolled 8 healthy subjects and undertook an evaluation of the effects of treatment on ECG following repeat dosing of Compound 03-5 in the presence of escalating doses of nadolol according to following schematic.\nEight healthy subjects aged 18-50 years were enrolled into Cohort D1 and received escalating doses of Compound 03-5 (3-12 mg) administered once daily 2 hours follow pre-administration of nadolol (1-40 mg). On all dosing days, study drug(s) were administered orally after an overnight fast of at least 8 hours. […]"}, "healthy subjects [2]": {"tested_on": "healthy subjects", "test": "Peripheral effects of Compound 03-5 (glucose, potassium, tachycardia, tremor, palpitations) with nadolol", "assay_type": "in vivo, human", "description": "Data are presented as individual observations for all available subjects.\nEight healthy subjects aged 18-50 years were enrolled into Cohort D1 and received escalating doses of Compound 03-5 (3-12 mg) administered once daily 2 hours follow pre-administration of nadolol (1-40 mg). On all dosing days, study drug(s) were administered orally after an overnight fast of at least 8 hours.\nRoutine measures of ECG, vital signs, safety labs, physical exams and plasma sample collections for analysis of drug pharmacokinetics (PK) were undertaken according to the Schedule of Events (Table 1).\n(§1) In Cohort D2, 8 healthy volunteers aged 55-75 years were admitted on Day −1 for a 5-day confinement period at the research facility. During this confinement, subjects received escalating doses of open label Compound 03-5 (1-10 mg) once-daily from Day 1 through Day 3 2 hours after pre-administration of open-label nadolol (3 mg) one each for the 3 dosing days according to the following schematic. Subjects remained in-residency until all study procedures are completed on Day 4."}, "[3]": {"tested_on": "healthy volunteers aged 55-75 years", "test": "CANTAB cognition battery, Cohort D2", "assay_type": "in vivo, human", "conditions": "Compound 03-5 1, 3, 10 mg on Days 1-3, 2 hours after nadolol 3 mg", "description": "CANTAB data from healthy adults 55-75 years of age (N=4) who received once-daily 3 mg nadolol and Compound 03-5 (1, 3, and 10 mg) on Day1, Day 2 and Day 3. […] Data are presented as mean changes from the within-day pre-dose assessment.\nas §1\n? Compound 03-5 dose administration. Compound 03-5 was administered as escalating doses on Day 1 (1 mg), Day 2 (3 mg) and Day 3 (10 mg). CANTAB was conducted twice in all subjects on the day prior to start of dosing (Day −1) to familiarize subjects with the platform, and prior to dosing and approximately 3 hours after Compound 03-5 administration on Days 1, 2, and 3."}, "Ts65Dn mice": {"tested_on": "Ts65Dn mice", "conditions": "increasing brain NE levels; cited from earlier work"}, "patients": {"tested_on": "patients", "test": "Cerebral blood flow relative to baseline after a single dose (Example 1)", "assay_type": "in vivo, human"}, "healthy subjects [4]": {"tested_on": "healthy subjects", "test": "Adaptive tracking test (visuomotor coordination and vigilance)", "assay_type": "in vivo, human", "conditions": "single dose 160 μg clenbuterol", "from_the_text": "Adaptive tracking measures visuomotor coordination and vigilance. In this test, the subject uses a joystick to move a small dot so that it stays within a continuously moving circle on a computer screen (Boland 1984). During the test, the speed of the circle is adjusted in response to the subject's ability to keep the dot in the circle, ensuring that the test is adapted to the individual subject. […] The improvement shown by subjects is in the same range as that seen with subjects treated with the acetylcholinesterase inhibitor donepezil, which is in clinical use for the treatment of mild to moderate AD (Groeneveld 2016)."}, "healthy subjects [5]": {"tested_on": "healthy subjects", "test": "ASL MRI cerebral perfusion before and after a single dose (Example 3)", "assay_type": "in vivo, human", "description": "In a clinical study, healthy subjects were administered doses of clenbuterol ranging from 20 to 160 μg and ASL MRI was conducted prior to and after dosing with an objective to ascertain whether this neuroimaging method enables the detection of a clinically relevant CNS signal.\nIn a region of interest (ROI) analysis focusing on the hippocampus, which is well understood to be affected in neurodegenerative disorders, a single dose of 80 μg of clenbuterol causes a robust increase in perfusion (see FIG. 7). […] Taken together with other cohorts in which ASL MRI was conducted, a clear dose response relationship is seen between dose of clenbuterol and cerebral perfusion (FIG. 8). […] Our hypothesis is that by improving cerebral perfusion, particularly in areas of the brain that are relevant for symptoms that are commonly found in neurodegenerative diseases such as PD and AD, the administration of a β-AR agonist (such as a β-agent) will have a positive effect on clinically relevant symptoms such as memory and cognition."}, "[6]": {"conditions": "doses of 80 and 160 μg clenbuterol"}},
  "note": "Entries after “also recorded” stand apart in the source; their conditions may differ.",
  "data": [
    {"molecule": "CC(C)(C)NCC(O)c1ccc(O)c(CO)c1", "note": "(stereo not shown) [salbutamol]", "values": [
      {"measurement": "effect on VVLT performance", "setting": "subjects", "result": "positive effects"}
    ]},
    {"molecule": "CC(C)(C)NC[C@H](O)c1cccc(C#N)n1", "note": "[Compound 03-5, (S)-6-(2-(tert-butylamino)-1-hydroxyethyl)picolinonitrile]", "values": [
      {"measurement": "mean maximum increase in heart rate", "setting": "healthy subjects [1]", "result": 7, "unit": "beats per minute"},
      {"measurement": "hypokalemia (blood potassium levels)", "setting": "healthy subjects [2]; Compound 03-5 monotherapy 0.3 mg-6 mg, Cohorts A1-A5", "result": "Dose-dependent increases in hypokalemia"},
      {"measurement": "performance in the CANTAB cognition battery", "setting": "[3]", "result": "improvements in cognition; also recorded: improvements in performance"}
    ]},
    {"molecule": "N[C@H](C(=O)O)[C@H](O)c1ccc(O)c(O)c1", "note": "[L-DOPS, L-threo-3,4-dihydroxyphenylserine]", "values": [
      {"measurement": "contextual learning", "setting": "Ts65Dn mice", "result": "restored contextual learning"}
    ]},
    {"molecule": "CC(C)(C)NCC(O)COc1cccc2c1CC(O)C(O)C2", "note": "(stereo not shown) [nadolol]", "values": [
      {"measurement": "peripheral effects of Compound 03-5 on heart rate, glucose, potassium, tachycardia, tremor and palpitations", "setting": "healthy subjects [2]; Cohort D1, pre-administered nadolol 1 mg up to 40 mg, Compound 03-5 3-12 mg", "result": "blocked the peripheral effects"},
      {"measurement": "effects of Compound 03-5 to increase heart rate and other peripheral effects including hyper glycemia and hypokalemia", "setting": "healthy subjects [2]; Cohort D1, pre-administration of 1 mg nadolol, Compound 03-5 orally up to 6 mg", "result": "substantially attenuated"},
      {"measurement": "peripheral effects of Compound 03-5 on heart rate, etc.", "setting": "healthy subjects [2]; Cohort D2, pre-administered nadolol 3 mg, Compound 03-5 1-10 mg", "result": "similarly blocked the peripheral effects"},
      {"measurement": "effects of Compound 03-5 on blood glucose and potassium, tachycardia, tremor and palpitations", "setting": "healthy subjects [2]; pre-administration of 1 mg nadolol", "result": "Concomitant attenuation"},
      {"measurement": "hypokalemia caused by Compound 03-5 (blood potassium levels)", "setting": "healthy subjects [2]; subjects dosed with nadolol 1-40 mg, Cohorts D1 and D2", "result": "attenuation of hypokalemia"}
    ]},
    {"molecule": "CC(C)NCC(O)COc1cccc2[nH]ccc12", "note": "(stereo not shown) [pindolol]", "values": [
      {"measurement": "effect on VVLT performance", "setting": "subjects", "result": "detrimental effect"}
    ]},
    {"molecule": "CC(C)(C)NCC(O)c1cc(Cl)c(N)c(Cl)c1", "note": "(stereo not shown) [clenbuterol]", "values": [
      {"measurement": "cerebral blood flow (CBF) relative to baseline", "setting": "patients; single dose clenbuterol 160 μg", "result": "robust global increase; also recorded: positive increase"},
      {"measurement": "cerebral blood flow (CBF) relative to baseline", "setting": "patients; single dose clenbuterol 160 μg and nadolol 5 mg", "result": "robust global increase"},
      {"measurement": "cerebral blood flow (CBF) relative to baseline", "setting": "patients; single dose clenbuterol ranging from 30 to 160 μg, tracked over 3 days", "result": "robust global increase"},
      {"measurement": "performance in adaptive tracking (percent time dot kept within moving circle)", "setting": "healthy subjects [4]", "result": "improved adaptive tracking; also recorded: improves"},
      {"measurement": "cognition as measured by adaptive tracking and word recall", "setting": "healthy subjects [4]; healthy subjects, preliminary data", "result": "improves cognition"},
      {"measurement": "effect on VVLT performance", "setting": "subjects", "result": "positive effects"},
      {"measurement": "effect on VVLT performance", "setting": "subjects; listed as Clenbuterol", "result": "improved performance"},
      {"measurement": "VVLT improvement in correctly recalled words", "setting": "subjects; immediate recall (Trial 1) and delayed recall, crossover study vs placebo", "result": "1.5 to 2", "unit": "correctly recalled words"},
      {"measurement": "cerebral perfusion increase as measured by CBF", "setting": "healthy subjects [5]; clenbuterol dose of 40 μg", "result": "minimal increase"},
      {"measurement": "cerebral perfusion increase as measured by CBF", "setting": "healthy subjects [5]; clenbuterol doses below 30 μg", "result": "do not produce significant cerebral perfusion increases"},
      {"measurement": "improvements in perfusion in brain areas relevant to neuropathology of neurodegenerative disorders", "setting": "healthy subjects [5]; [6]", "result": "~25", "unit": "%"},
      {"measurement": "increases in cerebral perfusion in hippocampus and thalamus", "setting": "healthy subjects [5]; [6]", "result": "20% to 25"},
      {"measurement": "increase in hippocampal perfusion, average", "setting": "healthy subjects [5]; single dose 80 μg clenbuterol, 6 healthy subjects aged 44-52, hippocampus ROI", "result": 25, "unit": "%"},
      {"measurement": "cerebral perfusion, change from baseline", "setting": "healthy subjects [5]; single dose 160 μg clenbuterol, global, in particular hippocampus, thalamus, cortex", "result": "global increase in cerebral perfusion; also recorded: robust global increase"}
    ]}
  ]
}
